Measured values: article PMC8708689

How the values were obtained:
[1] = test system: APP IRE RNA (RNA, mRNA element) GGUGGCGGCGCGGGCAGAGCAAGGACGCGGCGGAU; test: microscale thermophoresis, labelled IRP1; details: 150 mM NaCl; binds IRP1/RNA complex, RNA alone not tested; 2 nM IRP1, 600 nM RNA; 25 mM Tris pH 7.4, 0.1% Prionex
[2] = test system: H-ferritin IRE RNA (RNA, mRNA element) GGGGUUUCCUGCUUCAACAGUGCUUGGACGGAACC; test: microscale thermophoresis, labelled IRP1; details: 150 mM NaCl; IRP1/RNA complex, RNA alone not tested; 2 nM IRP1, 250 nM RNA; same buffer; Posiphen to 50 µM
[3] = biological target: T1, IRP1 (iron regulatory protein 1) (UniProt P21399 1-889); test: MST; no Posiphen; MST: 2 nM labeled IRP1, 25 mM Tris pH 7.4, 150 mM NaCl, 0.1% Prionex, 10 min incubation; temperature not stated; details: protein: commercial; hairpin
T1 sequence: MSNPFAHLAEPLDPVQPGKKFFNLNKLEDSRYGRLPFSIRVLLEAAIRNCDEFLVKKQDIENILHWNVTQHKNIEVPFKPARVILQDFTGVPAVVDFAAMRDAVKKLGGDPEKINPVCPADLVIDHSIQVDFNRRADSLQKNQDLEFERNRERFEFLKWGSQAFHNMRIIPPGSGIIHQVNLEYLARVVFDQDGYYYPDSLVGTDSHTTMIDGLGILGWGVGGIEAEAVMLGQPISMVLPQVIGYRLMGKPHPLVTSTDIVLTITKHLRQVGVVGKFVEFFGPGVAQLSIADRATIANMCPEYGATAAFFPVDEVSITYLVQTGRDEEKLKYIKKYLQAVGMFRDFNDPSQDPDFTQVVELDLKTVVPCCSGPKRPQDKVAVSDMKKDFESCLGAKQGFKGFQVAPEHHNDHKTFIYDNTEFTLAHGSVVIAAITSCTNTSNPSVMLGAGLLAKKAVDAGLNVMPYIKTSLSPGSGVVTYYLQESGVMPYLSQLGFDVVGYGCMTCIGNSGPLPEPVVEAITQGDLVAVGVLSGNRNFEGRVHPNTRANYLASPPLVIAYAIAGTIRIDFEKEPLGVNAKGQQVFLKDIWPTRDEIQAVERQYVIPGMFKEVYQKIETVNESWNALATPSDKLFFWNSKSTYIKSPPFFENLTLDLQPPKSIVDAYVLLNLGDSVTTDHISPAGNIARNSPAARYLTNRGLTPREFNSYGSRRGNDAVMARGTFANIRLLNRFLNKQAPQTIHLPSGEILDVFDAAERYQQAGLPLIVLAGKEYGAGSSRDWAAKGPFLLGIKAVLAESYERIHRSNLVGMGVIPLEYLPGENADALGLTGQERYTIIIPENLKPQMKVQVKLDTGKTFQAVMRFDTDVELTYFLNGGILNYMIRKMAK

Molecule | Kd [1] [nM] | binding [2] | Kd [3] [nM]
CN1CC[C@]2(C)c3cc(OC(=O)Nc4ccccc4)ccc3N(C)[C@H]12 | 3.2 | no | –
GGGGUUUCCUGCUUCAACAGUGCUUGGACGGAACC (structured_RNA) [H-ferritin IRE RNA (canonical)] | – | – | 88.5
GGUGGCGGCGCGGGCAGAGCAAGGACGCGGCGGAU (structured_RNA) [APP IRE RNA (atypical)] | – | – | 225
